{"source": "patent US6723337B1", "about": "“Transdermal drug delivery system for anti-inflammatory analgesic agent comprising diclofenac diethylammonium salt, and the manufacturing method thereof” (Samyang Corporation, priority 1997, dated 2004)", "origin": "cited, not measured here", "details": "composition comprising hydroxy ethyl pyrrolidone or hydroxy ethyl piperidine as absorption enhancer", "data": [{"smiles": "O=C(O)Cc1ccccc1Nc1c(Cl)cccc1Cl", "note": "[diclofenac]", "values": [{"measurement": "transdermal penetration of the accumulated diclofenac", "result": 180, "unit": "μg/cm^2·day"}]}]}
